{
  "source": "patent US8158628B2",
  "about": "“Sulfonylated 1,2,3,4-tetrahydropyrrolo[1,2-a]pyrazine compounds and their use as pharmaceuticals” (Gruenenthal GmbH, priority 2009, dated 2012)",
  "data": [
    {"molecular_target": "T1, B1R of the rat (Rattus norvegicus, UniProt P97583)", "T1 construct": "expressed in transfected cells; host or cells: CHO K1 cells (Chinese hamster ovary), stably transfected", "T1 sequence (P97583 1-337)": "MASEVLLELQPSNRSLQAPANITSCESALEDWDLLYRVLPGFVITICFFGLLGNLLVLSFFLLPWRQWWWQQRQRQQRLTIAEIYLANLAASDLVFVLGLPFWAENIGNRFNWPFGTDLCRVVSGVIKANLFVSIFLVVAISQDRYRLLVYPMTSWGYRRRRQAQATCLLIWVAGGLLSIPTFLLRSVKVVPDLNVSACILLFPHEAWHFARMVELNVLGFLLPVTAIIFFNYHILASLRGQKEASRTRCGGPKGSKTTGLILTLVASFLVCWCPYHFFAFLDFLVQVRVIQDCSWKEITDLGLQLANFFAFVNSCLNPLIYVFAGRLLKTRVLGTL", "assay": "FLIPR Ca2+ functional assay, B1R antagonism, rat B1R in CHO K1 cells", "type": "cell-based", "conditions": "test substance 10 μM; rB1R CHO K1 cells; agonist Des-Arg9 bradykinin at EC80; % of maximum achievable inhibition", "how_it_was_run": "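Stably transfected CHO K1 cells loaded with Fluo-4; Ca2+ fluorescence read on FLIPR (ex 488/em 540 nm). Compound preincubated 10-20 min, then agonist at EC80: Lys-Des-Arg9 bradykinin (human) or Des-Arg9 bradykinin (rat). % inhibition vs maximal inhibition; IC50 from concentration series, n=2-3, N>=2.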", "units": {"inhibition at 10 µM": "%"}, "values": [
      {"smiles": "O=C(CC1c2cccn2CCN1S(=O)(=O)c1ccccc1)NCC1CCCN(Cc2ccccc2)C1", "note": "(centres unmarked) [Example 235, 2-[2-(Benzenesulfonyl)-1,2,3,4-tetrahydro-pyrrolo[1,2-a]pyrazin-1-yl]-N-[(1-benzyl-piperidin-3-yl)-methyl]-acetamide]", "inhibition at 10 µM": -14},
      {"smiles": "CC1CCCC(C)N1CCCNC(=O)CC1c2cccn2CCN1S(=O)(=O)c1ccccc1", "note": "(centres unmarked) [Example 169, 2-[2-(Benzenesulfonyl)-1,2,3,4-tetrahydro-pyrrolo[1,2-a]pyrazin-1-yl]-N-[3-(2,6-dimethyl-piperidin-1-yl)-propyl]-acetamide]", "inhibition at 10 µM": 7.57},
      {"smiles": "CN1CCN(CC(NC(=O)CC2c3cccn3CCN2S(=O)(=O)c2cccc(C(F)(F)F)c2)c2ccccc2)CC1", "note": "(centres unmarked) [Example 185, N-[2-(4-Methyl-piperazin-1-yl)-1-phenyl-ethyl]-2-[2-[[3-(trifluoromethyl)phenyl]sulfonyl]-1,2,3,4-tetrahydro-pyrrolo[1,2-a]pyrazin-1-yl]-acetamide]", "inhibition at 10 µM": 76.4},
      {"smiles": "O=C(CC1c2cccn2CCN1S(=O)(=O)c1ccc(C(F)(F)F)cc1Cl)N1CCc2ccccc2C1", "note": "(centres unmarked) [Example 20, 2-(2-(2-Chloro-4-(trifluoromethyl)phenylsulfonyl)-1,2,3,4-tetrahydropyrrolo[1,2-a]pyrazin-1-yl)-1-(3,4-dihydroisoquinolin-2(1H)-yl)ethanone]", "inhibition at 10 µM": 30.7},
      {"smiles": "O=C(CC1c2cccn2CCN1S(=O)(=O)c1ccccc1)N1CCN(c2ccc(C(F)(F)F)cn2)CC1", "note": "(centres unmarked) [Example 183, 2-[2-(Benzenesulfonyl)-1,2,3,4-tetrahydro-pyrrolo[1,2-a]pyrazin-1-yl]-1-[4-[5-(trifluoromethyl)-pyridin-2-yl]-piperazin-1-yl]-ethanone]", "inhibition at 10 µM": 56.1},
      {"smiles": "COc1cc(C)c(S(=O)(=O)N2CCn3cccc3C2CC(=O)N2CCN(CCC#N)CC2)c(C)c1", "note": "(centres unmarked) [Example 247, 3-[4-[2-[2-[(4-Methoxy-2,6-dimethyl-phenyl)sulfonyl]-1,2,3,4-tetrahydro-pyrrolo[1,2-a]pyrazin-1-yl]-acetyl]-piperazin-1-yl]-propionitrile]", "inhibition at 10 µM": -27.4},
      {"smiles": "Cc1cc(S(=O)(=O)N2CCn3cccc3C2CC(=O)N(C)C(CN2CCN(C)CC2)c2ccccc2)c(C)cc1Cl", "note": "(centres unmarked) [Example 230, 2-[2-[(4-Chloro-2,5-dimethyl-phenyl)sulfonyl]-1,2,3,4-tetrahydro-pyrrolo[1,2-a]pyrazin-1-yl]-N-methyl-N-[2-(4-methyl-piperazin-1-yl)-1-phenyl-ethyl]-acetamide]", "inhibition at 10 µM": 5.28},
      {"smiles": "Cc1cccc(Cl)c1S(=O)(=O)N1CCn2cccc2C1CC(=O)N1CCN(CCC#N)CC1", "note": "(centres unmarked) [Example 253, 3-[4-[2-[2-[(2-Chloro-6-methyl-phenyl)sulfonyl]-1,2,3,4-tetrahydro-pyrrolo[1,2-a]pyrazin-1-yl]-acetyl]-piperazin-1-yl]-propionitrile]", "inhibition at 10 µM": -39.1},
      {"smiles": "COc1ccc(N2CCN(C(=O)CC3c4cccn4CCN3S(=O)(=O)c3ccc(C(F)(F)F)cc3Cl)CC2)cc1", "note": "(centres unmarked) [Example 237, 2-[2-[[2-Chloro-4-(trifluoromethyl)-phenyl]sulfonyl]-1,2,3,4-tetrahydro-pyrrolo[1,2-a]pyrazin-1-yl]-1-[4-(4-methoxyphenyl)-piperazin-1-yl]-ethanone]", "inhibition at 10 µM": 9.45},
      {"smiles": "O=C(CC1c2cccn2CCN1S(=O)(=O)c1cccc(C(F)(F)F)c1)N1CCC(N2CCCCC2)CC1", "note": "(centres unmarked) [Example 188, 1-(4-Piperidin-1-yl-piperidin-1-yl)-2-[2-[[3-(trifluoromethyl)phenyl]sulfonyl]-1,2,3,4-tetrahydro-pyrrolo[1,2-a]pyrazin-1-yl]-ethanone]", "inhibition at 10 µM": -2.25},
      {"smiles": "O=C(CC1c2cccn2CCN1S(=O)(=O)c1ccccc1)NCC1CCN(Cc2ccccc2)C1", "note": "(centres unmarked) [Example 182, 2-[2-(Benzenesulfonyl)-1,2,3,4-tetrahydro-pyrrolo[1,2-a]pyrazin-1-yl]-N-[(1-benzyl-pyrrolidin-3-yl)-methyl]-acetamide]", "inhibition at 10 µM": 37.5},
      {"smiles": "Cc1cc(C)c(CN2CCN(C(=O)CC3c4cccn4CCN3S(=O)(=O)c3cccc(C(F)(F)F)c3)CC2)c(C)c1", "note": "(centres unmarked) [Example 236, 2-[2-[[3-(Trifluoromethyl)phenyl]sulfonyl]-1,2,3,4-tetrahydro-pyrrolo[1,2-a]pyrazin-1-yl]-1-[4-[(2,4,6-trimethyl-phenyl)-methyl]-piperazin-1-yl]-ethanone]", "inhibition at 10 µM": 9.23},
      {"smiles": "Cc1cccc(Cl)c1S(=O)(=O)N1CCn2cccc2C1CC(=O)NC(CN1CCN(C)CC1)c1ccccc1", "note": "(centres unmarked) [Example 156, 2-[2-[(2-Chloro-6-methyl-phenyl)sulfonyl]-1,2,3,4-tetrahydro-pyrrolo[1,2-a]pyrazin-1-yl]-N-[2-(4-methyl-piperazin-1-yl)-1-phenyl-ethyl]-acetamide]", "inhibition at 10 µM": 95.1},
      {"smiles": "CN1CCN(C2CCN(C(=O)CC3c4cccn4CCN3S(=O)(=O)c3ccccc3)CC2)CC1", "note": "(centres unmarked) [Example 177, 2-[2-(Benzenesulfonyl)-1,2,3,4-tetrahydro-pyrrolo[1,2-a]pyrazin-1-yl]-1-[4-(4-methyl-piperazin-1-yl)-piperidin-1-yl]-ethanone]", "inhibition at 10 µM": -1.9},
      {"smiles": "CN1CCN(C(=O)CC2c3cccn3CCN2S(=O)(=O)c2ccccc2)C(c2ccccc2)C1", "note": "(centres unmarked) [Example 267, 2-[2-(Benzenesulfonyl)-1,2,3,4-tetrahydro-pyrrolo[1,2-a]pyrazin-1-yl]-1-(4-methyl-2-phenyl-piperazin-1-yl)-ethanone]", "inhibition at 10 µM": -4.75},
      {"smiles": "Cc1ccc(C)n1CCN1CCN(C(=O)CC2c3cccn3CCN2S(=O)(=O)c2ccccc2)CC1", "note": "(centres unmarked) [Example 178, 2-[2-(Benzenesulfonyl)-1,2,3,4-tetrahydro-pyrrolo[1,2-a]pyrazin-1-yl]-1-[4-[2-(2,5-dimethyl-1H-pyrrol-1-yl)-ethyl]-piperazin-1-yl]-ethanone]", "inhibition at 10 µM": 17.2},
      {"smiles": "O=C(CC1c2cccn2CCN1S(=O)(=O)c1ccc(C(F)(F)F)cc1Cl)NCC1CCCN(Cc2ccccc2)C1", "note": "(centres unmarked) [Example 254, N-[(1-Benzyl-piperidin-3-yl)-methyl]-2-[2-[[2-chloro-4-(trifluoromethyl)-phenyl]sulfonyl]-1,2,3,4-tetrahydro-pyrrolo[1,2-a]pyrazin-1-yl]-acetamide]", "inhibition at 10 µM": 8.85},
      {"smiles": "Cc1ccc2[nH]c(C3CCN(C(=O)CC4c5cccn5CCN4S(=O)(=O)c4cccc(C(F)(F)F)c4)CC3)nc2c1", "note": "(centres unmarked) [Example 189, 1-[4-(5-Methyl-1H-benzoimidazol-2-yl)-piperidin-1-yl]-2-[2-[[3-(trifluoromethyl)phenyl]sulfonyl]-1,2,3,4-tetrahydro-pyrrolo[1,2-a]pyrazin-1-yl]-ethanone]", "inhibition at 10 µM": -1.61},
      {"smiles": "Cc1cccc(Cl)c1S(=O)(=O)N1CCn2cccc2C1CC(=O)NCCCN1C(C)CCCC1C", "note": "(centres unmarked) [Example 155, 2-[2-[(2-Chloro-6-methyl-phenyl)sulfonyl]-1,2,3,4-tetrahydro-pyrrolo[1,2-a]pyrazin-1-yl]-N-[3-(2,6-dimethyl-piperidin-1-yl)-propyl]-acetamide]", "inhibition at 10 µM": 61.5},
      {"smiles": "COc1cc(C)c(S(=O)(=O)N2CCn3cccc3C2CC(=O)N2CCC(CCN3CCCCC3)CC2)c(C)c1", "note": "(centres unmarked) [Example 146, 2-[2-[(4-Methoxy-2,6-dimethyl-phenyl)sulfonyl]-1,2,3,4-tetrahydro-pyrrolo[1,2-a]pyrazin-1-yl]-1-[4-(2-piperidin-1-yl-ethyl)-piperidin-1-yl]-ethanone]", "inhibition at 10 µM": 73.5},
      {"smiles": "COc1cc(C)c(S(=O)(=O)N2CCn3cccc3C2CC(=O)N2CCN(c3ccc(C(F)(F)F)cn3)CC2)c(C)c1", "note": "(centres unmarked) [Example 152, 2-[2-[(4-Methoxy-2,6-dimethyl-phenyl)sulfonyl]-1,2,3,4-tetrahydro-pyrrolo[1,2-a]pyrazin-1-yl]-1-[4-[5-(trifluoromethyl)-pyridin-2-yl]-piperazin-1-yl]-ethanone]", "inhibition at 10 µM": 50.9},
      {"smiles": "O=C(CC1c2cccn2CCN1S(=O)(=O)c1ccccc1)N1CCN(c2ccccc2)CC1", "note": "(centres unmarked) [Example 174, 2-[2-(Benzenesulfonyl)-1,2,3,4-tetrahydro-pyrrolo[1,2-a]pyrazin-1-yl]-1-(4-phenyl-piperazin-1-yl)-ethanone]", "inhibition at 10 µM": 28},
      {"smiles": "O=C(CC1c2cccn2CCN1S(=O)(=O)c1ccccc1)NCCN1CCCC1", "note": "(centres unmarked) [Example 168, 2-[2-(Benzenesulfonyl)-1,2,3,4-tetrahydro-pyrrolo[1,2-a]pyrazin-1-yl]-N-(2-pyrrolidin-1-yl-ethyl)-acetamide]", "inhibition at 10 µM": 40.1},
      {"smiles": "Cc1cccc(Cl)c1S(=O)(=O)N1CCn2cccc2C1COCC(=O)N1CCC2(CC1)CCN(c1ccncc1)C2", "note": "(centres unmarked) [Example 14, 2-((2-(2-Chloro-6-methylphenylsulfonyl)-1,2,3,4-tetrahydropyrrolo[1,2-a]pyrazin-1-yl)methoxy)-1-(2-(pyridin-4-yl)-2,8-diazaspiro[4.5]decan-8-yl)ethanone]", "inhibition at 10 µM": 109},
      {"smiles": "Cc1cccc(Cl)c1S(=O)(=O)N1CCn2cccc2C1CC(=O)N1CCC[C@H]1CN1CCCC1", "note": "(stereo partly drawn) [Example 260, 2-[2-[(2-Chloro-6-methyl-phenyl)sulfonyl]-1,2,3,4-tetrahydro-pyrrolo[1,2-a]pyrazin-1-yl]-1-[(2S)-2-(pyrrolidin-1-yl-methyl)-pyrrolidin-1-yl]-ethanone]", "inhibition at 10 µM": -11.4},
      {"smiles": "Cc1cccc(Cl)c1S(=O)(=O)N1CCn2cccc2C1CC(=O)N1CCN(c2ncccc2C#N)CC1", "note": "(centres unmarked) [Example 261, 2-[4-[2-[2-[(2-Chloro-6-methyl-phenyl)sulfonyl]-1,2,3,4-tetrahydro-pyrrolo[1,2-a]pyrazin-1-yl]-acetyl]-piperazin-1-yl]-pyridine-3-carbonitrile]", "inhibition at 10 µM": 29.8}
    ]}
  ]
}
